Laboratory results: US12060329B1, “6′-(2-bromophenyl)-2′-ethoxy-3,4′-bipyridine-3′-carbonitrile as an antioxidant compound” (KING FAISAL UNIVERSITY, priority 2023, dated 2024)

Assay: DPPH radical scavenging antioxidant test
Assay type: biochemical
Details: 517 nm; for Inhibition (radical scavenging inhibition): compound 3 μM in ethanol, 0.2 mL DPPH (0.75 mM), 30 minutes in the dark
Procedure: The antioxidant activity of 6′-(2-bromophenyl)-2′-ethoxy-3,4′-bipyridine-3′-carbonitrile was investigated by 2,2-diphenyl-1-picrylhydrazyl (DPPH) in vitro tests that employ vitamin C as the positive control.
The antioxidant properties of the 6′-(2-bromophenyl)-2′-ethoxy-3,4′-bipyridine-3′-carbonitrile compound were studied by adding 0.2 mL DPPH (0.75 mM)) to 6′-(2-bromophenyl)-2′-ethoxy-3,4′-bipyridine-3′-carbonitrile (3 μM) (4) in ethanol. After 30 minutes of incubation in the dark, the absorbance was read against a blank at 517 nm. Ascorbic acid (vitamin C) was used as standard antioxidants (positive control). A blank sample was prepared by 0.2 mL of DPPH in 3 mL ethanol. A negative control sample was run using ethanol instead of the sample. The radical scavenging inhibition was calculated using the following equation: […]
The antioxidant activity for the synthesized compound is listed in Table 1, using Vitamin C as a reference.

Row | Structure (SMILES) | antioxidant potential to vanish the DPPH radical colors (in words) (DPPH in vitro test, vitamin C as positive control) | Inhibition (radical scavenging inhibition) [%]
1 | CCOc1nc(-c2ccccc2Br)cc(-c2cccnc2)c1C#N [Product 4, 6′-(2-bromophenyl)-2′-ethoxy-3,4′-bipyridine-3′-carbonitrile] | high potential as an antioxidant compared to vitamin C | 50
2 | O=C1O[C@H]([C@@H](O)CO)C(O)=C1O [vit c, Ascorbic acid, reference compound] |  | 74
